In patent US20220226329A1, “METHOD TO INDUCE HEMATOPOIETIC CHIMERISM” (The General Hospital Corporation, priority 2019, published 2022):
Where “and” joins values, the source holds several entries; their conditions need not be identical. Equal entries are not always repeated. Entries after “also recorded” stand apart in the source; their conditions may differ.

Assays:
[1] = test system: Bcl-2, Bcl-xL, Bcl-w, Mcl-1; details: literature statements; cited from earlier work
[2] = test system: hematopoietic stem cells (HSCs); experiment: Drug-only study: HSC deletion in bone marrow (flow cytometry) and total CFU assay; format: in vivo, cynomolgus macaques; details: S63845 5 mg/kg x 5 alone
Text: In certain embodiments, the deletion of CD34^+ cells of the bone marrow can be determined using flow cytometry and comparing the amount of CD34^+ cells of the bone marrow to pre-treatment levels. The reduction in total colony forming units can be measured by a CFU assay and comparing the CFUs to pre-treatment levels.

[3] = test system: BAX (the BCL-2-associated X protein); experiment: Intrinsic apoptosis: expression of BAX and other apoptotic markers in peripheral lymphocytes (flow cytometry, CyTOF); format: in vivo, Cynomolgus monkeys; details: 10 mg/kg x 11 (day -4 to +6), TBI 1.5 Gy regimen, n=3
Experimental: To examine intrinsic apoptosis induced by ABT-199, expression of BAX (the BCL-2-associated X protein), which is pro-apoptotic protein that plays an important role in the mitochondria-dependent apoptotic pathway was assessed.
Flow cytometric and CyTOF analyses: Peripheral blood mononuclear cells (PBMCs) were labeled with a combination of the following mAbs: CD3 (SP34-2), CD4 (L200), CD8 (SK1), CD21 (B-ly4), CD27 (M-T271), CD28 (CD28.2), CD95 (DX2), and IgM (G20-127) (BD Pharmingen, San Jose, Calif.), CD20 (2H7) (Biolegend, Inc., San Diego, Calif.) and FOXP3 (236A/E7) (eBioscience, Inc., San Diego, Calif.). The fluorescence of the stained samples was analyzed using FACSverse (BD Biosciences, San Jose, Calif.) and Accuri flow cytometers (BD PharMingen), and FlowJo software (Tree Star, Inc., Ashland, Oreg.). A CyTOF panel for cynomolgus monkeys was designed. The CyTOF panel consisted of antibodies against various NHP leukocyte markers including CD3, CD4, CD8, Foxp3, CD127, CTLA4, Ki-67, CD95, CD20, CD21, CD27, CD38, CD123, CD31, CD11c, CD25, HLA-DR, CD45RA, CD159 (NKG2a), Granzyme B, Caspase 3/7/9, Bax and Cytochrom C.

[4] = Blood counts (CBC: white blood cells, neutrophils, platelets, HCT) after conditioning and transplantation; format: in vivo, Cynomolgus monkeys
Experimental: (§1) Combined kidney and bone marrow transplantation (CKBMT): All recipients were conditioned with total body irradiation (TBI) (1.5 Gy on day −5, relative to the day of CKBMT), local thymic irradiation (TI) (7 Gy on day −1) and equine-derived anti-thymocyte globulin (hATG) (Atgam; Pharmacia and Upjohn, Kalamazoo, Mich.; 50 mg/kg/day i.v. on days −2, −1 and 0). Following DBMT, the recipients were also treated with anti-CD154 mAb (5c8; 20 mg/kg i.v. on days 0 and 2, 7, and 12 post-DBMT). Cyclosporine A (CyA, Novartis, Basel, Switzerland) was administered intramuscular (IM) on days 0-27 post DBMT, after which no immunosuppression was administered (FIG. 6).
(§2) Statistical analyses: Statistical analysis was performed with GraphPad PRISM 7.01 (GraphPad Software, Inc, San Diego, Calif.). We used two way ANOVA to compare chimerism, CBC, and T cell subsets. Mantel-Cox log-rank test was used to analyze survival of different groups and. P values lower than 0.05 have been considered statistically significant.

[5] = test system: Cynomolgus monkeys; experiment: Renal allograft survival / rejection after CKBMT without maintenance immunosuppression; format: in vivo; details: per animal
Experimental: To evaluate whether Bcl-2 inhibitor (ABT-199) can promote engraftment of hematopoietic stem cells with reduced myelosuppressive therapy, monkeys were treated with various modified regimens with ABT-199 and compared with standard regimen without ABT-199. The basic conditioning regimen consisted of low dose total body irradiation (TBI), thymic irradiation (TI, 7 Gy) and peri-transplant ATG administration. […] In Groups C-E, 10 mg/kg of ABT-199 was administered for 11 days (day −4 to day 6). Animals were divided into five groups according to the treatments (Table 1).
(§3) Animals and pair selections: Cynomolgus monkeys, including donor animals, weighing 4-8 kg were used for this study (Charles River Primates, Wilmington, Mass.). Donors and recipients were paired on the basis of ABO blood type compatibility and major histocompatibility complex (MHC) mismatching. MHC characterization was performed as previously described (O'Connor, S. L., et al. 2007, Immunogenetics 59, 449-462.; Pendley, C. J., et al. 2008, Immunogenetics 60, 339-351.). All surgical procedures and postoperative care of animals were performed in accordance with National Institute of Health guidelines for the care and use of primates and were approved by the Massachusetts General Hospital Institutional Animal Care and Use Committee (IACUC).
as §1, with “Following DBMT, the recipients were also treated with anti-CD154 mAb (5c8; 20 mg/kg i.v. on days 0 and 2, 7, and 12 post-DBMT).” left out
Kidney transplantation (KTx): Monkeys underwent heterotopic KTx and nephrectomy as previously described (Cosimi, A. B., et al. 1990, Surgery 108, 406-413.).
as §2

[6] = test system: Cynomolgus monkeys; experiment: Hematopoietic chimerism after combined kidney and bone marrow transplantation (CKBMT), flow cytometry of peripheral blood; format: in vivo; details: recipients with chimerism/total
Experimental: To evaluate whether Bcl-2 inhibitor (ABT-199) can promote engraftment of hematopoietic stem cells with reduced myelosuppressive therapy, monkeys were treated with various modified regimens with ABT-199 and compared with standard regimen without ABT-199. The basic conditioning regimen consisted of low dose total body irradiation (TBI), thymic irradiation (TI, 7 Gy) and peri-transplant ATG administration. After combined kidney and bone marrow transplantation, the recipients were treated with anti-CD154 mAb for 2 weeks and CyA for 4 weeks, after which no immunosuppression was given (FIG. 1). In Groups C-E, 10 mg/kg of ABT-199 was administered for 11 days (day −4 to day 6). Animals were divided into five groups according to the treatments (Table 1).
as §3
Following DBMT, the recipients were also treated with anti-CD154 mAb (5c8; 20 mg/kg i.v. on days 0 and 2, 7, and 12 post-DBMT). Cyclosporine A (CyA, Novartis, Basel, Switzerland) was administered intramuscular (IM) on days 0-27 post DBMT, after which no immunosuppression was administered (FIG. 6).
Bone marrow transplantation: Donor bone marrow cells (DBMC) were obtained by multiple aspirations from the iliac crests, humerus head, and vertebral bones under general anesthesia. If the donor animal was sacrificed, DBMC were harvested from the vertebral bones after euthanasia. DBMC (1.0-3.0×10^8 mononuclear cells/kg) were infused intravenously.
Detection of hematopoietic chimerism: A monkey was selected that was either BB7.6 (HLA-B7B40) positive or a H38 (HLA-BW6) positive monkey as a donor and a monkey negative to these antibodies was selected as a recipient. In all experiments, the percentage of cells that stained with each mAb was determined from one color fluorescence histogram and compared with those obtained from donor and pretreatment frozen recipient cells, which were used as positive and negative controls. The percentage of cells considered positive was determined with a cutoff chosen as the fluorescence level at the beginning of the positive peak for the positive control stain and by subtracting the percentage of cells stained with an isotype control. By using forward and 90° light scatter (FSC and SSC, respectively) dot plots, lymphocyte (FSC- and SSC-low), granulocyte (SSC-high), and monocyte (FSC-high but SSC-low) populations were gated, and chimerism was determined separately for each population. Nonviable cells were excluded by propidium iodide (Thermo Fischer Scientific, Grand Island, N.Y.) staining.

[7] = Example 2 Group D: ABT-199 +, TBI 0 Gy, TI 7 Gy
[8] = Example 2 Group E: ABT-199 +, TBI 1.5 Gy, TI 0 Gy
[9] = Example 3 Group E: venetoclax +, TBI 1.5 Gy, TI 7 Gy, CoB Belatacept
[10] = Example 3 Group F: venetoclax +, TBI 1.5 Gy, TI 7 Gy, no CoB
[11] = Example 3 Group G: venetoclax +, TBI 1.5 Gy, TI 0 Gy, CoB aCD154
[12] = Example 3 Group H: venetoclax +, TBI 0 Gy, TI 7 Gy, CoB aCD154

Question: Which “Selectivity among Bcl-2 family proteins” value [1] does the source give for `CN(C)CC[C@H](CSc1ccccc1)Nc1ccc(S(=O)(=O)NC(=O)c2ccc(N3CCN(Cc4ccccc4-c4ccc(Cl)cc4)CC3)cc2)cc1[N+](=O)[O-]` [ABT-737] here?
Answer: inhibits Bcl-2, Bcl-xL and Bcl-w but not Mcl-1

Question: Which results are given for `Cc1c(-c2c(-c3ccc(F)o3)sc3ncnc(O[C@H](Cc4ccccc4OCc4ccnn4CC(F)(F)F)C(=O)O)c23)ccc(OCCN2CCN(C)CC2)c1Cl` [S63845]?
Answer: HSCs in BM, % of the pretreatment level [2]: 51%; total colony forming units (CFU), % of pretreatment [2]: 45%

Question: For `CC1(C)CCC(c2ccc(Cl)cc2)=C(CN2CCN(c3ccc(C(=O)NS(=O)(=O)c4ccc(N[C@H](CCN5CCOCC5)CSc5ccccc5)c(S(=O)(=O)C(F)(F)F)c4)cc3)CC2)C1` [navitoclax], which “Bax expression in T cells, B cells and NK cells compared to pre Rx levels” value [3] is on record?
Answer: only observed with venetoclax but not with navitoclax

Question: And the “Platelet counts (thrombocytopenia)” value ([4]; 10 mg/kg x 11, after treatment)?
Answer: prolonged thrombocytopenia

Question: What does the source list for `CC1(C)CCC(CN2CCN(c3ccc(C(=O)NS(=O)(=O)c4ccc(NCC5CCOCC5)c([N+](=O)[O-])c4)c(Oc4cnc5[nH]ccc5c4)c3)CC2)=C(c2ccc(Cl)cc2)C1` [venetoclax]?
Answer: Graft survival ([5]; Example 2 Group C: ABT-199 +, TBI 1.5 Gy, TI 7 Gy): > 316 days and > 637 days and > 301 days and > 313 days and > 361 days and > 646 days; Graft survival [5, 7]: 142 days and 100 days; Graft survival [5, 8]: 163 days and 100 days and 97 days; Renal Allograft Survival (days) ([5]; Example 3 Group D: venetoclax +, TBI 1.5 Gy, TI 7 Gy, CoB aCD154): exceeding 1000 days; Renal Allograft Survival (days) ([5]; Example 3 Group D: venetoclax +, TBI 1.5 Gy, TI 7 Gy, CoB aCD154, listed as Venetoclax): > 1071 days and > 735 days and > 313 days; Renal Allograft Survival (days) [5, 9]: > 574 days and > 308 days; Renal Allograft Survival (days) ([5]; Example 3 Group E: venetoclax +, TBI 1.5 Gy, TI 7 Gy, CoB Belatacept, listed as Venetoclax): > 574 days and > 308 days and 237 days; Renal Allograft Survival (days) [5, 10]: 74 days and 127 days; Renal Allograft Survival (days) [5, 11]: 97 days and 100 days and 163 days; Renal Allograft Survival (days) [5, 12]: 120 days and 142 days; Chimerism ([6]; Example 2 Group C: ABT-199 10 mg/kg x 11 days (day -4 to 6), TBI 1.5 Gy, TI 7 Gy): 3/3; Chimerism [6, 7]: 0/2; Chimerism [6, 8]: 2/2; Chimerism ([6]; Example 3 Group D: venetoclax 10 mg/kg x 11 IM, TBI 1.5 Gy, TI 7 Gy, CoB aCD154): 5/5; Chimerism [6, 9]: 3/3; Chimerism [6, 10]: 0/2; Chimerism [6, 11]: 3/3; Chimerism [6, 12]: 0/2; Pancytopenia / neutropenia ([4]; Example 2 Group C: ABT-199 +, TBI 1.5 Gy, TI 7 Gy, in contrast to Group A (TBI 3 Gy, no ABT-199)): without development of severe pancytopenia; also recorded: without neutropenia; White blood cell counts, platelet counts, HCT (leukopenia, thrombocytopenia, anemia) ([4]; Example 3 Group D: venetoclax, TBI 1.5 Gy): no leukopenia, thrombocytopenia, or anemia; also recorded: stable
